Data taken from patent publication US11976069B2, “Inhibitors of histone deacetylase useful for the treatment or prevention of HIV infection” (Merck Sharp & Dohme LLC, priority 2019, dated 2024).
Read-outs that look alike come from different tables or passages of the source.

System: KARN cells (Jurkat 2C4)
Test: KARN assay (luciferase induction)
Assay type: cell-based
Settings: ~20 hr, 100% induction = 2 μM SAHA
Procedure: KARN cells (Jurkat 2C4) were licensed from the laboratory of Dr. John Kam, Case Western Reserve University, School of Medicine. […] An atmosphere of 5% CO2 and 90% humidity was used for all culture work. Cells were split and reseeded into T175 flasks at a density of 0.2×10^6 cells/ml, in 40 ml of media, every 3-4 days.
Day 1: After the 3-4 day growth period, the cells were transferred from the T175 flask to a 50 ml conical tube and gently pelleted at 1000 rpm for 5 minutes. […] These flasks were returned to the incubator.
Day 2: Cell Preparation: The next day, the cells were transferred from each T175 flask to an individual 50 ml conical tube and gently pelleted at 1000 rpm for 5 minutes. The cells were gently resuspended in assay media (30 ml) and pelleted again. […] The cells were counted using the ViCell (Beckman Coulter, Brea, Calif.) and diluted as necessary. A Multidrop (Combi, Thermo Scientific, Waltham, Mass.) with a sterile head was used to seed the cells into the wells of a 384-well solid black plate with lid (Perkin Elmer, Waltham, Mass., catalog number 6007660) at 4000 cells/30 μl/well for the 5% NHS assay media and 6000 cells/30 μl/well for 0.1% NHS assay. The plates were covered and returned to the incubator prior to compound addition.
Compound Preparation: Solutions of control inhibitor suberoylanilide hydroxamic acid (SAHA; Sigma, catalog number SML0061) and test compounds in 100% DMSO were titrated into 384-well polypropylene plates (Labcyte, San Jose, Calif., catalog number P-05525) using a 20-point dose response and 2-fold dilutions. The reference compounds, DMSO and SAHA were then added to the compound plate. Using the Access system (Labcyte), 120 nl of these inhibitor and control solutions were added to the individual wells of the plates containing the cells, and the plates were then returned to the incubator for ˜20 hr (range from 18-24 hr). The final high concentration for SAHA and the test compounds in the assays was 40 μM. The final DMSO concentration in all wells was 0.4%. The minimal induction reference compound used was DMSO and the maximal induction reference compound used was SAHA (2 μM final concentration in the assay).
Day 3: The luciferase detection reagent was prepared by transferring the contents of one bottle of Steady-Glo buffer to one bottle of Steady-Glo substrate (Steady-Glo Luciferase Assay System, Promega, Madison, […]., catalog number E2520), followed by gently mixing until the substrate was thoroughly dissolved and the solution was equilibrated to room temperature. The cell culture assay plates were removed from the incubator and brought to room temperature (15 min). The Steady-Glo Reagent was added to the plates (30 μl/well), which were then covered with a black lid and incubated for 10 minutes at room temperature. The plates were then read for luminescence on an Envision (Perkin Elmer) using the ultrasensitive mode (US LUM), […] and 384-well aperture. Luminescence counts in the DMSO reference wells were considered as 0% induction, while those in the 2 μM SAHA reference wells were considered as 100% induction. Dose response curves were plotted as test compound concentration (X-axis) vs. percent activation (Y-axis) using a 4-parameter fit based on the Levenberg-Marquardt algorithm.

[1] = Jurkat, read-out: Karn EC50 with 0.1% NHS, 0.1% normal human serum
[2] = Jurkat, read-out: Karn EC50 with 5% NHS, 5% normal human serum
[3] = read-out: Karn EC50 with 0.1% NHS, 0.1% normal human serum
[4] = read-out: Karn EC50 with 5% NHS, 5% normal human serum

| Compound | EC50 [1] | EC50 [2] | EC50 [3] | EC50 [4] |
| --- | --- | --- | --- | --- |
| CCC(=O)CCCCC[C@@H]1NC(=O)[C@H]2CC23CCN(CCCCCCCCn2ccc4cc(c(OC)cc4c2=O)-c2cnc1[nH]2)CC3 [Compound 5, (1^1S,4S)-6^7-methoxy-4-(6-oxooctyl)-6^1,6^2-dihydro-5^1H-3-aza-6(6,2)-isoquinolina-15(4,1)-piperidina-5(2,5)-imidazola-1(1,2)-cyclopropanapentadecaphane-6^1,2-dione] | 0.011 µM | 0.012 µM | – | – |
| CCC(=O)CCCCCC1NC(=O)C2CC2N2CCC(CCCCCn3c(=O)ccc4cc(ccc43)-c3cnc1o3)CC2 [Compound 7, (11S,4S)-4-(6-oxooctyl)-61,62-dihydro-3-aza-5(2,5)-oxazola-6(6,1)-quinolina-12(4,1)-piperidina-1(1,2)-cyclopropanadodecaphane-62,2-dione] | – | – | 5.15 µM | 4.73 µM |
| CCC(=O)CCCCC[C@@H]1NC(=O)[C@H]2CC23CCN(CCCOCCCn2ccc4cc(ccc4c2=O)-c2cnc1[nH]2)CC3 [Compound 12, (3S,6S)-6-(6-oxooctyl)-22-oxa-5,8,18,26,33-pentaazahexacyclo[24.2.2.1˜7,10˜0.1˜11,15˜0.1˜14,18˜0.0˜1,3˜]tritriaconta-7,9,11(32),12,14,16-hexaene-4,31-dione] | 1.79 µM | 1.99 µM | – | – |
| CCC(=O)CCCCC[C@H](NC(=O)[C@H]1CC12CCN(CC)CC2)c1[nH]c2nc1C(=O)NCCC/C=C/c1cccc-2c1 [Compound 15, (1S)-6-ethyl-N-{(1S)-7-oxo-1-[(11E)-6-oxo-3,7,18-triazatricyclo[11.3.1.1~2,5~]octadeca-1(17),2(18),4,11,13,15-hexaen-4-yl]nonyl}-6-azaspiro[2.5]octane-1-carboxamide] | 5.24 µM | 19.3 µM | – | – |
| (11S,4S)-4-(6-oxooctyl)-61,62-dihydro-3-aza-5(2,5)-oxazola-6(6,1)-quinolina-12(4,1)-piperidina-1(1,2)-cyclopropanadodecaphane-62,2-dione [Compound 8] | – | – | > 40 µM | > 40 µM |
